Here are results for two compounds from US7041461B2 (H. Lundbeck A/S, priority 1998, dated 2006).

Format in all cases: cell-based
Experiment [1] deals with T1, NPFF-1 receptor (Rattus norvegicus, UniProt Q9EP86).
T1 construct: expressed in transfected cells; host or cells: Cos-7 cells, transient, intact cells
Description: Total inositol phosphate release in transiently transfected Cos-7 cells.

Experiment [2] concerns the target T2, SNORF2 (NPFF1) (Rattus norvegicus, UniProt Q9EP86).
T2 construct: from linearized plasmids or PCR products containing the complete coding region of the genes; expressed in transfected cells; host or cells: Xenopus laevis oocytes injected with synthetic RNA
As to the kind of experiment: Voltage-clamp electrophysiology in Xenopus oocytes expressing SNORF2 (NPFF1) and chimeric Gαq/z. Particulars: oocytes with SNORF2 and Gαq/z; for inward current response: 1 μM, holding potential −80 mV. As for the experimental part: (§1) Oocytes were harvested from Xenopus laevis and injected with mRNA transcripts as previously described (Quick and Lester, 1994; Smith et al., 1997). […] Three to eight hours prior to recording, oocytes were injected with 500 pg Gαq/z mRNA in order to observe coupling to Ca^++ activated Cl^− currents. Dual electrode voltage clamp (Axon Instruments Inc.) was performed using 3 M KCl-filled glass microelectrodes having resistances of 1–2 Mohm. Unless otherwise specified, oocytes were voltage clamped at a holding potential of −80 mV. During recordings, oocytes were bathed in continuously flowing (1–3 ml/min) medium containing 96 mM NaCl, 2 mM KCl, 1.8 mM CaCl2, 1 mM MgCl2, and 5 mM HEPES, pH 7.5 (ND96). Drugs were applied either by local perfusion from a […] glass capillary tube fixed at a distance of 0.5 mm from the oocyte, or by switching from a series of gravity fed perfusion lines.
Heterologous expression of GPCRs in Xenopus oocytes has been widely used to determine the identity of signaling pathways activated by agonist stimulation (Gundersen et al., 1983; Takahashi et al., 1987). Activation of the phospholipase C (PLC) pathway is assayed by applying test compound in ND96 solution to oocytes previously injected with mRNA for the mammalian receptor and observing inward currents at a holding potential of −80 mV. The appearance of currents that reverse at −25 mV and display other properties of the Ca^++-activated Cl^− (chloride) channel is indicative of mammalian receptor-activation of PLC and release of IP3 and intracellular Ca^++.
Control oocytes receiving only G-protein synthetic RNA were unresponsive to these peptides. […] Similarly, SNORF2-like was renamed NPFF-like.

In experiment [3] the target is T3, NPFF2 (hNPFF2) (Homo sapiens, UniProt Q9Y5X5).
T3 construct: BO89, was determined to be a full length clone with no point mutations; expressed in transfected cells; host or cells: Xenopus laevis oocytes injected with synthetic mRNA
T3 sequence (Q9Y5X5 103-522): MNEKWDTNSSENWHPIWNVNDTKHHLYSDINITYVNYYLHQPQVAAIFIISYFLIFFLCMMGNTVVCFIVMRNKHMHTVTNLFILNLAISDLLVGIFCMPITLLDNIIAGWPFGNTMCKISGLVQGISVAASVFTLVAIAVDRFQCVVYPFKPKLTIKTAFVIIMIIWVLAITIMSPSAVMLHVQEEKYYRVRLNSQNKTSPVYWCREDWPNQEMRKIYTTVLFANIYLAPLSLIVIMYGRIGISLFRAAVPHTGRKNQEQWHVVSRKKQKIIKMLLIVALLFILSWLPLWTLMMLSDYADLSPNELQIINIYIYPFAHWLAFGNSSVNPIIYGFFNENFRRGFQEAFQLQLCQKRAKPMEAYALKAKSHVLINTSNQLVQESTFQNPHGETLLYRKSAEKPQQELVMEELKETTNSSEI
As to the kind of experiment: Voltage-clamp electrophysiology in Xenopus oocytes expressing NPFF2 (NPFF-like) and chimeric Gαq/z. Particulars: 1 μM; oocytes with NPFF2 (NPFF-like) mRNA and Gαq/z; −80 mV. As for the experimental part:
Electrophysiological responses in voltage-clamped oocytes expressing NPFF2 mRNA. […] Oocytes were clamped at a holding potential of −80 mV.
For expression of NPFF2, mRNA transcripts were generated as described for NPFF1, using PCR products from ligation reactions or linearized DNA from B089 as DNA templates. Oocytes were injected with 5–50 ng NPFF2 mRNA and incubated as previously described.
as §1

For experiment [4], the target named is T4, NPFF1 (SN2) (Rattus norvegicus, UniProt Q9EP86).
T4 construct: expressed in transfected cells; host or cells: CHO (CHO-K1) cells, transient
T4 sequence (Q9EP86 whole entry): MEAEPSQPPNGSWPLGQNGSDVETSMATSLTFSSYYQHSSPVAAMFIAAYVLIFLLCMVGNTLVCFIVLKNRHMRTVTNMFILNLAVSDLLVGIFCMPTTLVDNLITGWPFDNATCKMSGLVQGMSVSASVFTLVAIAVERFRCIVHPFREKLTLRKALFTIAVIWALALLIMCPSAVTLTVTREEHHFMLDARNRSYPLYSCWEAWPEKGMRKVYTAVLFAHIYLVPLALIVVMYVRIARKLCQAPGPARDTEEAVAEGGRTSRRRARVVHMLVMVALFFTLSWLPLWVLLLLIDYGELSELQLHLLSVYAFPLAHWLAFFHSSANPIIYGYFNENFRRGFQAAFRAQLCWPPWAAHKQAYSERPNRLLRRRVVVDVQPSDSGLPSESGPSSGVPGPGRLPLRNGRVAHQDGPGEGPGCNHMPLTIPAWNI
As to the kind of experiment: Microphysiometric measurement of extracellular acidification rate in transiently transfected CHO cells. As to conditions: CHO cells transfected with NPFF1 alone; read-out: EC50, increase in extracellular acidification rate. The source says:
Microphysiometric response of CHO cells transiently transfected with either NPFF1 (SN2) alone or NPFF1 accompanied by Gq/Gz. […] In both FIGS. 17A and 17B control cells mock transfected with empty vector produced little if any response to drug even at the highest concentrations used. Responses are reported as percentage increase in the acidification rate as observed just prior to drug challenge (immediate prior basal rate).
General guidelines for transient receptor expression, cell preparation and microphysiometric recording are described elsewhere (Salon, J. A. and Owicki, J. A., 1996). Receptors and/or control vectors are transiently expressed in CHO-K1 cells, by liposome mediated transfection according to the manufacturers recommendations (Lipof ectAMINE, GibcoBRL, Gaithersburg, Md.), and maintained in Ham's F-12 complete (10% serum). […]
A standard recording protocol specifies a 100 μl/min flow rate, with a 2 min total pump cycle which includes a 30 sec flow interrruption during which the acidification rate measurement is taken. […] Ligand samples are then washed out and the acidification rates reported are expressed as a percentage increase of the peak response over the baseline rate observed just prior to challenge. […]

One may read the EC50 as the concentration that produces a half-maximal response.

T2 sequence (Q9EP86 whole entry): as above
T1 sequence (Q9EP86 whole entry): as above

Consider `CC(C)C[C@H](NC(=O)[C@@H](N)Cc1ccccc1)C(=O)N[C@@H](Cc1ccccc1)C(=O)N[C@@H](CCC(N)=O)C(=O)N1CCC[C@H]1C(=O)N[C@@H](CCC(N)=O)C(=O)N[C@@H](CCCNC(=N)N)C(=O)N[C@@H](Cc1ccccc1)C(N)=O` [NPFF(F-8-Fa)], for which the “Emax, total IP release” value in experiment [1] (Cos-7 cells transfected with NPFF1 alone) is given as “approximately 200 % basal”; in experiment [1] (Cos-7 cells transfected with NPFF1 receptor and Gq/Gz chimera) it was “approximately 1500 % basal”. For the same compound, the inward current response entry in experiment [2] was “robust inward currents”. Also, the “threshold for activation of inward current” value in experiment [2] came to 30 nM.

Consider H-AGEGLSSPFWSLAAPQRF-NH2 [A18Fa], for which the inward current response result in experiment [3] is given as “activated similar inward currents”; in experiment [2], “robust inward currents”. The EC50 in experiment [4] came to 150 nM.
